Experimental data as given in patent US12077503B2, “Substituted cyclic amides and their use as herbicides” (FMC CORPORATION, priority 2015, dated 2024).

Assays:
Assay type in all cases: in vivo
[1] = system: sedge, umbrella (small-flower umbrella sedge, Cyperus difformis); experiment: Test B flooded paddy test; details: Flood, 250 g ai/ha; 0 to 100 scale where 0 is no effect and 100 is complete control; 13 to 15 d
Procedure, shortened: (§1)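 Greenhouse paddy pots with 2-leaf stage plants received compound by direct addition to floodwater 3 cm deep, kept at that level. Scored visually at 13–15 d versus controls (0 no effect; 100 complete control).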

[2] = system: barnyardgrass (Echinochloa crus-galli); experiment: Test B flooded paddy test; details: Flood, 250 g ai/ha; 0 to 100 scale where 0 is no effect and 100 is complete control; 13 to 15 d
Procedure, shortened: as §1

rice (Oryra sativa) = experiment: Test B flooded paddy test; details: Flood, 250 g ai/ha; 0 to 100 scale where 0 is no effect and 100 is complete control; 13 to 15 d
Procedure, shortened: as §1

[3] = system: ducksalad (Heteranthera limosa); experiment: Test B flooded paddy test; details: Flood, 250 g ai/ha; 0 to 100 scale where 0 is no effect and 100 is complete control; 13 to 15 d
Procedure, shortened: as §1

[4] = system: giant foxtail (Setaria faberii); experiment: Test A postemergence; details: postemergence; for Foxtail, Giant plant response rating: 125 g ai/ha, visual injury rating on 0 to 100 scale (0 no effect, 100 complete control), approx. 10 d; for Plant response rating, Foxtail, Giant: 500 g ai/ha, 0 to 100 scale, 0 no effect, 100 complete control
Procedure, shortened: (§2)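 Compounds were formulated in a non-phytotoxic solvent mixture with surfactant and applied as a preemergence directed soil spray after seeding, or sprayed postemergence over plants 2 to 10 cm tall at the one- to two-leaf stage. Evaluation after about 10 d compared treated with untreated controls, using a scale from 0 (no effect) to 100 (complete control).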

[5] = system: barnyardgrass (Echinochloa crus-galli); experiment: Test A postemergence; details: postemergence; for Barnyardgrass plant response rating: 125 g ai/ha, visual injury rating on 0 to 100 scale (0 no effect, 100 complete control), approx. 10 d; for Plant response rating, Barnyardgrass: 500 g ai/ha, 0 to 100 scale, 0 no effect, 100 complete control
Procedure, shortened: as §2

[6] = system: blackgrass (Alopecurus myosuroides); experiment: Test A postemergence; details: postemergence; for Blackgrass plant response rating: 125 g ai/ha, visual injury rating on 0 to 100 scale (0 no effect, 100 complete control), approx. 10 d; for Plant response rating, Blackgrass: 500 g ai/ha, 0 to 100 scale, 0 no effect, 100 complete control
Procedure, shortened: as §2

[7] = system: pigweed (Amaranthus retroflexus); experiment: Test A postemergence; details: postemergence; for Pigweed plant response rating: 125 g ai/ha, visual injury rating on 0 to 100 scale (0 no effect, 100 complete control), approx. 10 d; for Plant response rating, Pigweed: 500 g ai/ha, 0 to 100 scale, 0 no effect, 100 complete control
Procedure, shortened: as §2

[8] = system: wheat (Triticum aestivum); experiment: Test A postemergence; details: postemergence; for Wheat plant response rating: 125 g ai/ha, visual injury rating on 0 to 100 scale (0 no effect, 100 complete control), approx. 10 d; for Plant response rating, Wheat: 500 g ai/ha, 0 to 100 scale, 0 no effect, 100 complete control
Procedure, shortened: as §2

corn (Zea mays) = experiment: Test A postemergence; details: postemergence; for Corn plant response rating: 125 g ai/ha, visual injury rating on 0 to 100 scale (0 no effect, 100 complete control), approx. 10 d; for Plant response rating, Corn: 500 g ai/ha, 0 to 100 scale, 0 no effect, 100 complete control
Procedure, shortened: as §2

[9] = system: ryegrass, Italian (Italian ryegrass, Lolium multiflorum); experiment: Test A postemergence; details: postemergence; for Ryegrass, Italian plant response rating: 125 g ai/ha, visual injury rating on 0 to 100 scale (0 no effect, 100 complete control), approx. 10 d; for Plant response rating, Ryegrass, Italian: 500 g ai/ha, 0 to 100 scale, 0 no effect, 100 complete control
Procedure, shortened: as §2

Kochia (Kochia scoparia) [10] = experiment: Test A postemergence; details: postemergence; for Kochia plant response rating: 125 g ai/ha, visual injury rating on 0 to 100 scale (0 no effect, 100 complete control), approx. 10 d; for Plant response rating, Kochia: 500 g ai/ha, 0 to 100 scale, 0 no effect, 100 complete control
Procedure, shortened: as §2

[11] = system: ragweed (common ragweed, Ambrosia elatior); experiment: Test A postemergence; details: postemergence; for Ragweed plant response rating: 125 g ai/ha, visual injury rating on 0 to 100 scale (0 no effect, 100 complete control), approx. 10 d; for Plant response rating, Ragweed: 500 g ai/ha, 0 to 100 scale, 0 no effect, 100 complete control
Procedure, shortened: as §2

[12] = system: Galium (catchweed bedstraw, Galium aparine); experiment: Test A postemergence; details: postemergence; for Galium plant response rating: 125 g ai/ha, visual injury rating on 0 to 100 scale (0 no effect, 100 complete control), approx. 10 d; for Plant response rating, Galium: 500 g ai/ha, 0 to 100 scale, 0 no effect, 100 complete control
Procedure, shortened: as §2

[13] = system: pigweed (Amaranthus retroflexus); experiment: Test C preemergence; details: scale 0 to 100, 0 no effect, 100 complete control
Excerpt: Seeds of plant species selected from blackgrass (Alopecurus myosuroides), ryegrass, Italian (Italian ryegrass, Lolium multiflorum), wheat (winter wheat, Triticum aestivum), Galium (catchweed bedstraw, Galium aparine), corn (Zea mays), crabgrass, large (large crabgrass, Digitaria sanguinalis), foxtail, giant (giant foxtail, Setaria faberii), johnsongrass (Sorghum halepense), lambsquarters (Chenopodium album), morningglory (Ipomoea coccinea), nutsedge, yellow (yellow nutsedge, Cyperus esculentus), pigweed (Amaranthus retroflexus), ragweed (common ragweed, Ambrosia elatior), soybean (Glycine max), barnyardgrass (Echinochloa crus-galli), oilseed rape (Brassica napus), waterhemp (common waterhemp, Amaranthus rudis) and velvetleaf (Abutilon theophrasti) were planted into a blend of loam soil and sand and treated preemergence with test chemicals formulated in a non-phytotoxic solvent mixture which included a surfactant.
At the same time, plants selected from these crop and weed species and also Kochia (Kochia scoparia), oat, wild (wild oat, Avena fatua), and chickweed (common chickweed, Stellaria media) were planted in pots containing Sunshine Redi-Earth® planting medium comprising spaghnum peat moss, vermiculite, starter nutrients and dolomitic limestone and treated with postemergence applications of test chemicals formulated in the same manner. Plants ranged in height from 2 to 18 cm (1- to 4-leaf stage) for postemergence treatments. Treated plants and controls were maintained in a greenhouse for 13 to 15 d, after which time all species were compared to controls and visually evaluated. Plant response ratings, summarized in Table C, are based on a scale of 0 to 100 where 0 is no effect and 100 is complete control. A dash (-) response means no test result.

[14] = system: giant foxtail (Setaria faberii); experiment: Test A preemergence; details: for Plant response rating, Foxtail, Giant: 125 g ai/ha, preemergence, 0 to 100 scale (0 no effect, 100 complete control); for Foxtail, Giant plant response rating (0 to 100 scale, 0 is no effect, 100 is complete control): Preemergence, 500 g ai/ha, visual injury approx. 10 d
Procedure, shortened: as §2

[15] = system: barnyardgrass (Echinochloa crus-galli); experiment: Test A preemergence; details: for Plant response rating, Barnyardgrass: 125 g ai/ha, preemergence, 0 to 100 scale (0 no effect, 100 complete control); for Barnyardgrass plant response rating (0 to 100 scale, 0 is no effect, 100 is complete control): Preemergence, 500 g ai/ha, visual injury approx. 10 d
Procedure, shortened: as §2

[16] = system: pigweed (Amaranthus retroflexus); experiment: Test A preemergence; details: for Plant response rating, Pigweed: 125 g ai/ha, preemergence, 0 to 100 scale (0 no effect, 100 complete control); for Pigweed plant response rating (0 to 100 scale, 0 is no effect, 100 is complete control): Preemergence, 500 g ai/ha, visual injury approx. 10 d
[17] = system: ryegrass, Italian (Italian ryegrass, Lolium multiflorum); experiment: Test A preemergence; details: for Plant response rating, Ryegrass, Italian: 125 g ai/ha, preemergence, 0 to 100 scale (0 no effect, 100 complete control); for Ryegrass, Italian plant response rating (0 to 100 scale, 0 is no effect, 100 is complete control): Preemergence, 500 g ai/ha, visual injury approx. 10 d
Procedure, shortened: as §2

Kochia (Kochia scoparia) [18] = experiment: Test A preemergence; details: for Plant response rating, Kochia: 125 g ai/ha, preemergence, 0 to 100 scale (0 no effect, 100 complete control); for Kochia plant response rating (0 to 100 scale, 0 is no effect, 100 is complete control): Preemergence, 500 g ai/ha, visual injury approx. 10 d
Procedure, shortened: as §2

[19] = system: ragweed (common ragweed, Ambrosia elatior); experiment: Test A preemergence; details: for Plant response rating, Ragweed: 125 g ai/ha, preemergence, 0 to 100 scale (0 no effect, 100 complete control)
Procedure, shortened: as §2

What does the source list for `CN1CC(c2ccc(C(F)(F)F)cc2)C(C(=S)Nc2ccccc2F)C1=O` (stereo not shown) [Compound 450]?
Plant response rating, Sedge, Umbrella [1]: 0; Plant response rating, Barnyardgrass [2]: 45; Plant response rating, Rice (rice (Oryra sativa)): 0; Plant response rating, Ducksalad [3]: 75; Foxtail, Giant plant response rating [4]: 80; Plant response rating, Foxtail, Giant [4]: 80; Barnyardgrass plant response rating [5]: 80; Plant response rating, Barnyardgrass [5]: 90; Blackgrass plant response rating [6]: 20; Plant response rating, Blackgrass [6]: 40; Pigweed plant response rating [7]: 50; Plant response rating, Pigweed [7]: 60; Wheat plant response rating [8]: 0; Plant response rating, Wheat [8]: 30; Corn plant response rating (corn (Zea mays)): 20; Plant response rating, Corn (corn (Zea mays)): 60; Ryegrass, Italian plant response rating [9]: 0; Plant response rating, Ryegrass, Italian [9]: 50; Kochia plant response rating (Kochia (Kochia scoparia) [10]): 20; Plant response rating, Kochia (Kochia (Kochia scoparia) [10]): 50; Ragweed plant response rating [11]: 20; Plant response rating, Ragweed [11]: 30; Galium plant response rating [12]: 50; Plant response rating, Galium [12]: 60; Plant response rating, Pigweed ([13]; 31 g ai/ha): 55; Plant response rating, Pigweed ([13]; 62 g ai/ha): 60; Plant response rating, Pigweed ([13]; 125 g ai/ha): 80; Plant response rating, Pigweed ([13]; 250 g ai/ha): 80; Plant response rating, Foxtail, Giant [14]: 90; Foxtail, Giant plant response rating (0 to 100 scale, 0 is no effect, 100 is complete control) [14]: 90; Plant response rating, Barnyardgrass [15]: 90; Barnyardgrass plant response rating (0 to 100 scale, 0 is no effect, 100 is complete control) [15]: 90; Plant response rating, Pigweed [16]: 70; Pigweed plant response rating (0 to 100 scale, 0 is no effect, 100 is complete control) [16]: 80; Plant response rating, Ryegrass, Italian [17]: 0; Ryegrass, Italian plant response rating (0 to 100 scale, 0 is no effect, 100 is complete control) [17]: 40; Plant response rating, Kochia (Kochia (Kochia scoparia) [18]): 50; Kochia plant response rating (0 to 100 scale, 0 is no effect, 100 is complete control) (Kochia (Kochia scoparia) [18]): 80; Plant response rating, Ragweed [19]: 20; Ragweed plant response rating (0 to 100 scale, 0 is no effect, 100 is complete control) ([19]; Preemergence, 500 g ai/ha, visual injury approx. 10 d): 70

What does the source list for `Cc1ccc(C2CN(C)C(=O)C2C(=O)Nc2cccc(F)c2F)cc1F` (stereo not shown) [Compound 464]?
Plant response rating, Sedge, Umbrella [1]: 0; Plant response rating, Barnyardgrass [2]: 70; Plant response rating, Rice (rice (Oryra sativa)): 20; Plant response rating, Ducksalad [3]: 100; Foxtail, Giant plant response rating [4]: 90; Plant response rating, Foxtail, Giant [4]: 90; Barnyardgrass plant response rating [5]: 90; Plant response rating, Barnyardgrass [5]: 90; Blackgrass plant response rating [6]: 60; Plant response rating, Blackgrass [6]: 70; Pigweed plant response rating [7]: 40; Plant response rating, Pigweed [7]: 50; Wheat plant response rating [8]: 70; Plant response rating, Wheat [8]: 70; Corn plant response rating (corn (Zea mays)): 90; Plant response rating, Corn (corn (Zea mays)): 90; Ryegrass, Italian plant response rating [9]: 70; Plant response rating, Ryegrass, Italian [9]: 80; Kochia plant response rating (Kochia (Kochia scoparia) [10]): 50; Plant response rating, Kochia (Kochia (Kochia scoparia) [10]): 60; Ragweed plant response rating [11]: 30; Plant response rating, Ragweed [11]: 30; Galium plant response rating [12]: 60; Plant response rating, Galium [12]: 70; Plant response rating, Pigweed ([13]; 31 g ai/ha): 45; Plant response rating, Pigweed ([13]; 62 g ai/ha): 45; Plant response rating, Pigweed ([13]; 125 g ai/ha): 60; Plant response rating, Pigweed ([13]; 250 g ai/ha): 70; Plant response rating, Foxtail, Giant [14]: 90; Foxtail, Giant plant response rating (0 to 100 scale, 0 is no effect, 100 is complete control) [14]: 90; Plant response rating, Barnyardgrass [15]: 90; Barnyardgrass plant response rating (0 to 100 scale, 0 is no effect, 100 is complete control) [15]: 90; Plant response rating, Pigweed [16]: 70; Pigweed plant response rating (0 to 100 scale, 0 is no effect, 100 is complete control) [16]: 70; Plant response rating, Ryegrass, Italian [17]: 70; Ryegrass, Italian plant response rating (0 to 100 scale, 0 is no effect, 100 is complete control) [17]: 90; Plant response rating, Kochia (Kochia (Kochia scoparia) [18]): 70; Kochia plant response rating (0 to 100 scale, 0 is no effect, 100 is complete control) (Kochia (Kochia scoparia) [18]): 80; Plant response rating, Ragweed [19]: 50
